{"source": "patent US11965038B2", "about": "“Pharmaceutical composition comprising antibody binding specifically to lysyl-tRNA synthetase N-terminus as effective ingredient for preventing or treating immune cell migration-related disease” (Zymedi Co., Ltd., priority 2017, dated 2024)", "key": {"RAW 264.7 cells": {"tested_on": "RAW 264.7 cells", "assay": "Transwell migration assay with extracellular matrix proteins and laminin subtypes", "assay_type": "cell-based", "method": "In the extracellular matrix (ECM) that make up the blood vessels, it was identified which promotes the migration and invasion of monocytes/macrophages. Transwell migration assay was performed using collagen (collagen, Col), fibronectin (FN) and laminin (LN) as extracellular matrix. The specific experimental method is as follows. After transwells (Corning, #3421-5 mm) were coated with gelatin (0.5 mg/ml), RAW 264.7 cells (1×10^5 cells/well) were seeded into the top chamber. Fibronectin or Collagen was placed in the bottom chamber. Serum Free DMEM (500 μl) containing 10 μg/ml of Laminin (laminin mixture, Biolamina), Fibronectin or Collagen, respectively, was placed in the bottom chamber. After 24 hours, the cells were treated with 70% methanol for 30 minutes and fixed, and then stained with 50% Hematoxylin for 30 minutes. After removing non-migrating cells from the top of the membrane with a cotton swab, the membrane was taken and mounted on the slide. The migrating cells on the underside of the membrane were observed and quantified under a high magnification microscope.\nThe effects of laminin subtypes on immune cell migration and invasion were evaluated. A transwell cell migration assay was performed in the same manner as in the Example 1 using LN111, LN211, LN221, LN411, LN421, LN511, and LN521 at 1 μg/ml as various laminin subtype proteins (purchased from Biolamina). […]"}, "[1]": {"assay": "Body weight change in MCT-induced PAH model", "assay_type": "in vivo, SD rats", "conditions": "sildenafil 25 mpk, n = 5", "from_the_text": "(§1) To induce PAH in 7-week-old SD rats (Oriental Bio), 60 mpk of MCT (monocrotaline) were subcutaneously injected."}, "[2]": {"tested_on": "pulmonary arterial hypertension (PAH) models", "assay": "Echocardiography in MCT-induced PAH model", "assay_type": "in vivo, SD rats", "conditions": "PAH rats, MCT alone: three animals", "from_the_text": "as §1"}, "[3]": {"tested_on": "migration and invasion of immune cells", "conditions": "ear skin wound models, liver ischemia-reperfusion injury models; from Korean applications 10-2017-0076718 and 10-2018-0069146; cited from earlier work"}, "KRS": {"tested_on": "KRS", "assay": "Western blotting of KRS in cytosol and membrane fractions after LN421 treatment", "assay_type": "cell-based", "conditions": "1 μg/ml LN421, 0 h, 12 h, 24 h", "method": "After seeding RAW 264.7 cells (2×10^6 cells) in 100 pie plate and incubating for 18 hr, the serum free-DMEM media was treated with 1 μg/ml LN421 and the cells were harvested at 0 h, 12 h, and 24 h. RAW 264.7 cell proteins were separated into cytosol and membrane fractions using the ProteoExtract® Subcellular Proteome Extraction Kit (Calbiotech, cat #539790). The obtained protein was subjected to electrophoresis, transferred to PVDF membrane (Millipore) and blocked with 3% skim milk. KRS was then detected by the western blotting. Specifically, KRS polyclonal antibody (rabbit, Neomics, Co. Ltd. #NMS-01-0005) was added to bind for 1 hour. Unbound antibody was removed and then anti-rabbit secondary antibody (Thermo Fisher Scientific, #31460) was added. After reacting with the secondary antibody, the film was developed in the dark room using ECL reagent as a substrate. The detected bands were compared to standard molecular markers to identify the bands corresponding to the size of the KRS. Antibodies against Na+/K+ATPase (Abcam, ab76020) and tubulin (Santa cruz SC-5286) were used to identify plasma membrane and cytosol markers, respectively."}}}
{"compound": "laminin", "values": [{"measurement": "migration of monocytes/macrophages", "setting": "RAW 264.7 cells; collagen, fibronectin or laminin mixture 10 μg/ml in bottom chamber, 24 hours", "result": "most strongly promotes"}]}
{"compound": "CCCc1nn(C)c2c(=O)[nH]c(-c3cc(S(=O)(=O)N4CCN(C)CC4)ccc3OCC)nc12", "note": "[Sildenafil, sildenafil]", "values": [{"measurement": "Relative change (weight)", "setting": "[1]; MCT + Mock IgG 48.8 ± 7.8", "result": "49.8 ± 10.5", "unit": "%"}, {"measurement": "Absolute change (weight)", "setting": "[1]; MCT + Mock IgG 101.4 ± 14.2", "result": "104.1 ± 26.4", "unit": "g"}, {"measurement": "D-shaped left ventricle finding indicating pressure overload in the right ventricle", "setting": "[2]", "result": "three animals"}]}
{"compound": "COc1ccc(CCN(Cc2ccc(C(=O)O)cc2)c2nc3cccc(F)c3s2)cc1", "note": "[BC-KI-00053, 4-({(7-fluorobenzo [d]thiazol-2-yl) [2-(4-methoxyphenyl)ethyl]amino}methyl) benzoic acid]", "values": [{"measurement": "migration and invasion of immune cells", "setting": "[3]", "result": "inhibited"}]}
{"compound": "LN421: laminin subtype α4β2γ1, purchased from Biolamina", "values": [{"measurement": "amount of KRS detected in the cell membrane region", "setting": "KRS", "result": "increased"}, {"measurement": "migration of monocytes/macrophages by laminin subtype", "setting": "RAW 264.7 cells; laminin subtypes at 1 μg/ml", "result": "specifically move in response"}]}
